These results are taken from US6787534B2, “Sulfonamide-containing heterocyclic compounds” (Eisai Co., Ltd., priority 1999, dated 2004).

≈ marks a conversion by molar mass, not a printed value.

For the test, the system named is aorta pieces of rat (angiogenesis, capillaries formed around the aorta). The test is described as follows: Antiangiogenic effect: inhibition of capillary formation around rat aorta pieces incubated in collagen. It counts as cell-based, rat (Sprague-Dawley). Particulars: rat thoracic aorta pieces in Type I collagen gel, MCDB 131 medium; capillaries counted on 7th day from addition of test compound; three-fold dilutions from 10 μg/ml; read-out: IC50 (50% inhibiting concentration of angiogenesis). Here is the method: Pharmacological Experimental Example 1, Antiangiogenic Effect
The inhibition degree of angiogenesis which was observed when aorta pieces of rat were incubated in collagen was defined as an antiangiogenic effect. That is, the thoracic aorta excised from male rat of Sprague-Dawley strain (10-12 weeks age) was washed with a Hanks' solution (Gibco BRL, Gaithersburg, USA) so that fat tissues around there were removed minutely. The aorta was incised to prepare pieces of 2 mm square and they were allowed to stand in a 24-well plate holding the endothelial cells upside. Then, 500 μl of neutralized Type I collagen (Cell Matrix Type I-A; manufactured by Nitta Gelatin) were poured over each well and allowed to stand at room temperature for about 20 minutes in a clean bench to solidify the gel. After confirming that the gel was solidified, 500 μl of MCDB 131 medium (manufactured by Chlorella Kogyo) were added thereto followed by incubating in a CO2 incubator (5% CO2) at 37° C. On the next day, the culture medium was exchanged with 500 μl of MCDB 131 medium containing the test compound and the incubation was continued. After three days, the medium was again exchanged with 500 μl of MCDB 131 medium containing the test compound and, at the stage of the 7th day from the initiation of addition of the test compound, numbers of capillaries formed around the aorta were counted under a microscope. The solution containing the test compound was prepared in a three-fold dilution system where 10 μg/ml was the highest concentration.
Inhibiting rate was calculated from the following formula and 50% inhibiting concentration (IC50) for each test compound was determined.
Inhibiting Rate (%)=(C−T)/Cx100
C: Numbers of capillaries when no compound was added
T: Numbers of capillaries when a compound was added Table 1

Turning to `O=S(=O)(Nc1cnc2c(Br)cccc2c1)c1cccnc1` [Example 1, N-(8-Bromoquinolin-3-yl)-3-pyridinesulfonamide], the IC50 was found to be 0.49 µg/mL (≈ 1.35 µM).

On to `Cc1cncc(S(=O)(=O)Nc2ccc3c(Br)cccc3n2)c1` [Example 2, N-(5-Bromoquinolin-2-yl)-5-methyl-3-pyridinesulfonamide], for which the IC50 was 0.74 µg/mL (≈ 1.96 µM).

Turning to `N#Cc1ccc(S(=O)(=O)Nc2cnc3c(Br)cccc3c2)cc1` [Example 4, N-(8-Bromoquinolin-3-yl)-4-cyanobenzenesulfonamide], the IC50 worked out at 0.09 µg/mL (≈ 0.232 µM).

With `CCNS(=O)(=O)c1ccc(S(=O)(=O)Nc2cnc3c(Br)cccc3c2)cc1` [Example 6, N-(8-Bromoquinolin-3-yl)-4-(N-ethylsulfamoyl)benzenesulfonamide], the IC50 was found to be 0.12 µg/mL (≈ 0.255 µM).

On to `O=S(=O)(Nc1cnc2c(Br)cccc2c1)c1ccc2c(c1)CCC2` [Example 11, N-(8-Bromoquinolin-3-yl)-5-indanesulfonamide], for which the IC50 was determined as 0.04 µg/mL (≈ 0.0992 µM).

As for `O=S(=O)(Nc1cnc2c(I)cccc2c1)c1cncc2ccccc12` [Example 15, N-(8-Iodoquinolin-3-yl)-4-isoquinolinesulfonamide], the IC50 is 0.87 µg/mL (≈ 1.89 µM).

Regarding `N#Cc1ccc(S(=O)(=O)Nc2ccc3c(Cl)cccc3n2)cc1` [Example 24, 4-Cyano-N-(5-chloroquinolin-2-yl)-benzenesulfonamide], the IC50 stood at 0.49 µg/mL (≈ 1.43 µM).

For the compound `CCNS(=O)(=O)c1ccc(S(=O)(=O)Nc2ccc3c(Br)cccc3n2)cc1` [Example 27, N-(5-Bromoquinolin-2-yl)-4-(N-ethylsulfamoyl)benzenesulfonamide], the IC50 was 0.08 µg/mL (≈ 0.17 µM).

With `N#Cc1ccc(S(=O)(=O)Nc2cnc3c(C(F)(F)F)cccc3c2)cc1` [Example 38, N-(8-Trifluoromethylquinolin-3-yl)-4-cyanobenzenesulfonmide], the IC50 was 0.15 µg/mL (≈ 0.398 µM).

For the compound `O=S(=O)(Nc1cnc2c(Br)cccc2c1)c1ccc2c(c1)SCCO2` [Example 47, N-(8-Bromoquinolin-3-yl) -4-oxa-7-thiochromansulfonamide], the IC50 is 0.09 µg/mL (≈ 0.206 µM).

In the case of `CC(=O)NCCc1ccc(S(=O)(=O)Nc2cnc3c(Br)cccc3c2)cc1` [Example 48, N-(8-Bromoquinolin-3-yl)-4-(2-acetamideethyl)benzenesulfonamide], the IC50 was 0.35 µg/mL (≈ 0.781 µM).

Consider `O=S1(=O)CCCc2cc(S(=O)(=O)Nc3cnc4c(Br)cccc4c3)ccc21` [Example 50, N-(8-Bromoquinolin-3-yl) -1,1-dioxide-6-yl-sulfonamide], for which the IC50 stood at 0.31 µg/mL (≈ 0.663 µM).

As for `COc1ccc(S(=O)(=O)Nc2cnc3c(Br)cccc3c2)nn1` [Example 53], the IC50 came out at 0.53 µg/mL (≈ 1.34 µM).

For the compound `O=S(=O)(Nc1ccc2c(Br)cncc2c1)c1ccc(Cl)nc1` [Example 59, N-(4-Bromoisoquinolin-7-yl)-6-chloro-3-pyridinesulfonamide], the IC50 is 0.2 µg/mL (≈ 0.502 µM).

Take `N#Cc1ccc(S(=O)(=O)Nc2ccc3c(Cl)nccc3c2)cc1` [Example 61, 1-Chloro-6-(4-cyanobenzenesulfonylamino)isoquinoline]: the IC50 was 0.3 µg/mL (≈ 0.873 µM).

On to `COc1nccc2cc(NS(=O)(=O)c3ccc(N)nc3)ccc12` [Example 69, 6-(2-Aminopyridin-5-ylsulfonylamino)-1-methoxyisoquinoline], for which the IC50 was 0.15 µg/mL (≈ 0.454 µM).

For the compound `COc1nccc2cc(NS(=O)(=O)c3ccc(-c4nccs4)cc3)ccc12` [Example 77, 1-Methoxy-6-(4-thiazol-2-ylbenzenesulfonylamino)isoquinoline], the IC50 turned out to be 0.39 µg/mL (≈ 0.981 µM).

For the compound `CCc1nccc2cc(NS(=O)(=O)c3ccc(Cl)cc3)ccc12` [Example 80, 6-(4-Chlorobenzenesulfonylamino)-1-ethylisoquinoline], the IC50 came out at 0.2 µg/mL (≈ 0.577 µM).

As to `CCc1cncc2ccc(NS(=O)(=O)c3ccc(Cl)cc3)cc12` [Example 81], the IC50 is 0.85 µg/mL (≈ 2.45 µM).

`N#Cc1nccc2cc(NS(=O)(=O)c3ccc(Cl)cc3)ccc12` [Example 84, 6-(4-Chlorobenzenesulfonylamino)-1-cyanoisoquinoline]: the IC50 came out at 0.14 µg/mL (≈ 0.407 µM).

Regarding `C=Cc1cccc2nc(NS(=O)(=O)c3cccnc3)ccc12` [Example 91, N-(5-Vinylquinolin-2-yl)-3-pyridinesulfonamide], the IC50 was 0.33 µg/mL (≈ 1.06 µM).

As for `O=c1cc(C(F)(F)F)c2ccc(NS(=O)(=O)c3ccc(Cl)cc3)cc2o1` [Example 92, N-(4-Trifluoromethylcoumarin-7-yl)-4-chlorobenzenesulfonamide], the IC50 stood at 0.2 µg/mL (≈ 0.495 µM).
